Each structure is given as a SMILES string. In brackets after ≈: the same amount, converted by molar mass. Several values for one entry are separate records, joined by “and”; a condition that tells them apart may be missing. Equal values may be shown once. Where only a bound is given, the exact number is not on record here.

This passage reports MIC results from DBAASP.

Some test systems named below: Bacillus subtilis 168; Escherichia coli B; Pseudomonas aeruginosa; Staphylococcus aureus; Micrococcus luteus; Acinetobacter baumannii; Escherichia coli; Klebsiella pneumoniae.
Holding throughout (test): ≥ marks a high value that may be exact or a test limit, other limits are often not marked, values filed in µg/mL are converted to µM
Assay [1] deals with Escherichia coli DH5alpha.
For assay [2], the system named is Klebsiella pneumoniae ATCC 13883.
Assay [3] deals with Pseudomonas aeruginosa ATCC 27853.
Assay [4] concerns Salmonella enterica subsp. enterica serovar Typhimurium ATCC 14028.
Assay [5] has as its system Staphylococcus aureus NCTC 8325.
The subject of assay [6] is Pseudomonas aeruginosa ATCC 10145.
Assay [7] relates to Acinetobacter baumannii ATCC 19606.
The test system of assay [8] is Escherichia coli ATCC 25922.
In assay [9] the test system is Staphylococcus aureus ATCC 25923.
The subject of assay [10] is Escherichia coli ATCC 11775.
In assay [11] the test system is Candida albicans ATCC 2002.
Assay [12] has as its system Pseudomonas aeruginosa CMCCB 10104.
In assay [13] the test system is Staphylococcus aureus ATCC 29213.

What is called MIC is the least concentration at which growth counts as inhibited. A lower MIC goes with greater potency. As for `CC[C@H](C)[C@H](NC(=O)[C@H](Cc1cnc[nH]1)NC(=O)[C@H](C)NC(=O)[C@H](CCSC)NC(=O)[C@H](CC(N)=O)NC(=O)[C@H](CCCCN)NC(=O)[C@H](CCCCN)NC(=O)[C@@H](NC(=O)[C@@H](NC(=O)[C@H](CCCCN)NC(=O)[C@H](C)NC(=O)[C@H](Cc1ccccc1)NC(=O)[C@H](CC(C)C)NC(=O)[C@H](CCCCN)NC(=O)[C@@H]1CCCN1C(=O)[C@H](CC(C)C)NC(=O)[C@@H](N)Cc1ccccc1)[C@@H](C)CC)[C@@H](C)O)C(=O)N[C@@H](CCCN=C(N)N)C(=O)N[C@@H](CS)C(=O)O` [FLPKLFAKITKKNMAHIRC], the MIC in assay [1] is 17 µM and 12 µM; in assay [2] it was 12 µM and 10 µM; in assay [3], 15 µM (≈ 33.9 µg/mL); in assay [4] it was 15 µM (≈ 33.9 µg/mL).

Compound `CC[C@H](C)[C@H](NC(=O)[C@H](CC(C)C)NC(=O)CNC(=O)[C@H](CO)NC(=O)[C@H](CC(C)C)NC(=O)[C@@H](NC(=O)[C@H](CCCCN)NC(=O)CNC(=O)[C@@H](NC(=O)[C@H](CC(C)C)NC(=O)[C@@H]1CCCN1C(=O)[C@H](CC(C)C)NC(=O)[C@@H](N)Cc1ccccc1)C(C)C)[C@@H](C)CC)C(N)=O` [FLPLVGKILSGLI] registered an MIC in assay [5] of at least 70 µM.

Take `CC[C@H](C)[C@H](NC(=O)[C@H](Cc1cnc[nH]1)NC(=O)[C@H](CCCCN)NC(=O)[C@H](Cc1c[nH]c2ccccc12)NC(=O)[C@H](CC(C)C)NC(=O)[C@H](CO)NC(=O)[C@H](CCSC)NC(=O)[C@H](Cc1c[nH]c2ccccc12)NC(=O)[C@H](CCCCN)NC(=O)CN)C(=O)N[C@@H](CC(C)C)C(=O)N[C@@H](CCCCN)C(N)=O` [GKWMSLWKHILK]: the MIC in the assay with Bacillus subtilis 168 is 1.4 µM (≈ 2.14 µg/mL); in the assay on Escherichia coli B it was 8 µM (≈ 12.2 µg/mL); in the assay on Pseudomonas aeruginosa, 32.5 µM (≈ 49.6 µg/mL); against Staphylococcus aureus, 27 µM (≈ 41.2 µg/mL).

For `CC(C)C[C@H](NC(=O)CNC(=O)[C@H](CC(C)C)NC(=O)CNC(=O)[C@H](CC(N)=O)NC(=O)[C@H](CC(C)C)NC(=O)[C@H](CC(C)C)NC(=O)[C@H](CC(N)=O)NC(=O)CNC(=O)[C@H](CC(C)C)NC(=O)[C@@H](NC(=O)CNC(=O)[C@H](CC(C)C)NC(=O)[C@H](CC(C)C)NC(=O)CN)[C@@H](C)O)C(N)=O` [GLLGTLGNLLNGLGL], in the assay with Micrococcus luteus, the MIC is at least 35.1 µM.

In the case of `CC[C@H](C)[C@H](NC(=O)[C@H](CC(C)C)NC(=O)[C@H](Cc1cnc[nH]1)NC(=O)CNC(=O)[C@H](CC(C)C)NC(=O)[C@@H](NC(=O)[C@H](CCCCN)NC(=O)[C@H](CO)NC(=O)[C@H](Cc1c[nH]c2ccccc12)NC(=O)[C@H](CCSC)NC(=O)CN)[C@@H](C)CC)C(=O)N[C@@H](CCCCN)C(N)=O` [GMWSKILGHLIK], the MIC against Bacillus subtilis 168 turned out to be 1.3 µM (≈ 1.8 µg/mL); in the assay with Escherichia coli B it was 7.2 µM (≈ 9.95 µg/mL); against Pseudomonas aeruginosa, 65 µM (≈ 89.8 µg/mL); against Staphylococcus aureus it was 15.8 µM (≈ 21.8 µg/mL).

With `C[C@H](NC(=O)[C@H](C)NC(=O)[C@H](CCCCN)NC(=O)[C@H](CCCCN)NC(=O)[C@H](C)NC(=O)[C@H](C)NC(=O)[C@H](CCCCN)NC(=O)[C@H](CCCCN)NC(=O)[C@H](C)NC(=O)[C@H](Cc1ccccc1)NC(=O)[C@H](CCCCN)NC(=O)[C@H](CCCCN)NC(=O)[C@H](C)NC(=O)[C@H](Cc1ccccc1)NC(=O)[C@@H](N)CCCCN)C(=O)N[C@@H](CCCCN)C(=O)O` [KFAKKFAKKAAKKAAK], in assay [6], the MIC was at least 142 µM.

`CC[C@H](C)[C@H](NC(=O)[C@@H](N)CCCCN)C(=O)NCC(=O)N[C@@H](CCCCN)C(=O)N[C@@H](C)C(=O)N[C@@H](CC(C)C)C(=O)NCC(=O)N[C@@H](CCCCN)C(=O)N[C@@H](C)C(=O)N[C@@H](CC(C)C)C(=O)N[C@@H](CCCCN)C(=O)N[C@@H](C)C(=O)N[C@@H](CC(C)C)C(=O)NCC(=O)N[C@@H](CCCCN)C(=O)N[C@@H](C)C(=O)N[C@@H](CC(C)C)C(=O)NCC(=O)N[C@@H](CCCCN)C(=O)N[C@@H](C)C(N)=O` [KIGKALGKALKALGKALGKA]: the MIC in [7] is 2 µM (≈ 3.87 µg/mL); against Acinetobacter baumannii, at least 45.3 µM; in assay [8] it was 8 µM (≈ 15.5 µg/mL); in the assay with Escherichia coli, 45.3 µM (≈ 87.6 µg/mL); in [2], 16 µM (≈ 31 µg/mL); in the assay on Klebsiella pneumoniae, 16 µM (≈ 31 µg/mL). In addition, the MIC in assay [3] is 8 µM (≈ 15.5 µg/mL); with Pseudomonas aeruginosa, 22.6 µM (≈ 43.8 µg/mL); in assay [9], 16 µM and 22.6 µM; in the assay on Staphylococcus aureus it was 16 µM (≈ 31 µg/mL).

As to `NCCCC[C@H](NC(=O)[C@H](Cc1c[nH]c2ccccc12)NC(=O)[C@H](CCC(N)=O)NC(=O)[C@H](Cc1c[nH]c2ccccc12)NC(=O)[C@H](CCCCN)NC(=O)[C@H](Cc1c[nH]c2ccccc12)NC(=O)[C@H](CCC(N)=O)NC(=O)[C@H](Cc1c[nH]c2ccccc12)NC(=O)[C@@H](N)CCCCN)C(=O)O` [KWQWKWQWK], the MIC in assay [10] is at least 36 µM; in assay [8], 36 µM (≈ 50.5 µg/mL); in assay [3], 143 µM (≈ 201 µg/mL); in [9], 143 µM (≈ 201 µg/mL).

On to `CC[C@H](C)[C@H](NC(=O)[C@H](CCCCN)NC(=O)CNC(=O)[C@H](CC(C)C)NC(=O)[C@@H](NC(=O)[C@H](CCCCN)NC(=O)[C@H](CCCCN)NC(=O)[C@H](Cc1c[nH]c2ccccc12)NC(=O)[C@@H](NC(=O)[C@@H](N)CC(N)=O)C(C)C)C(C)C)C(=O)N[C@H](C(=O)N[C@@H](CCCCN)C(=O)N[C@H](C(=O)N[C@@H](C)C(=O)N[C@@H](CCCCN)C(N)=O)C(C)C)[C@@H](C)CC` [NVWKKVLGKIIKVAK], for which the MIC was found to be 1.3 µM (≈ 2.24 µg/mL) against Bacillus subtilis 168, 2.5 µM (≈ 4.31 µg/mL) against Escherichia coli B, 22.7 µM (≈ 39.1 µg/mL) in the assay on Pseudomonas aeruginosa and 71.6 µM (≈ 123 µg/mL) in the assay on Staphylococcus aureus.

Regarding `CC[C@H](C)[C@H](NC(=O)[C@H](CC(C)C)NC(=O)[C@H](CC(C)C)NC(=O)[C@H](CC(=O)O)NC(=O)[C@H](CCCCN)NC(=O)[C@@H](NC(=O)[C@@H](NC(=O)CNC(=O)[C@H](CC(C)C)NC(=O)[C@@H](NC(=O)[C@@H](N)CO)C(C)C)[C@@H](C)O)C(C)C)C(=O)NCC(=O)N[C@@H](C)C(=O)NCC(=O)N[C@@H](CCCCN)C(=O)N[C@@H](CO)C(=O)N[C@@H](C)C(=O)N[C@@H](C)C(=O)N[C@@H](CCC(N)=O)C(=O)N[C@@H](CO)C(=O)N[C@H](C(=O)N[C@@H](CC(C)C)C(=O)N[C@H](C(=O)N[C@@H](C)C(=O)N[C@@H](CC(C)C)C(=O)N[C@@H](CO)C(=O)N[C@H]1CSSC[C@@H](C(=O)O)NC(=O)[C@H](CO)NC(=O)[C@H](CC(N)=O)NC(=O)[C@H](CO)NC(=O)[C@H](CC(C)C)NC(=O)[C@H](CCCCN)NC1=O)[C@@H](C)O)C(C)C` [SVLGTVKDLLIGAGKSAAQSVLTALSCKLSNSC], the MIC in assay [11] came out at 3.4 µM (≈ 11 µg/mL); in [8], 1.7 µM (≈ 5.5 µg/mL); in [12] it was 6.8 µM (≈ 22 µg/mL); in assay [9] it was 3.4 µM (≈ 11 µg/mL).

For `CC[C@H](C)[C@H](NC(=O)[C@H](C)NC(=O)[C@@H](N)C(C)C)C(=O)N[C@@H](C)C(=O)N[C@@H](CC(C)C)C(=O)N[C@@H](CCCCN)C(=O)N[C@@H](C)C(=O)N[C@@H](C)C(=O)N[C@@H](Cc1cnc[nH]1)C(=O)N[C@@H](Cc1ccc(O)cc1)C(=O)N[C@@H](C)C(=O)N[C@H](C(=O)N[C@@H](Cc1cnc[nH]1)C(=O)N[C@@H](CCCCN)C(=O)N[C@@H](CCC(=O)O)C(=O)O)[C@@H](C)O` [VAIALKAAHYATHKE], the values for the MIC in assay [2] and in assay [13] were at least 78.9 µM and 39.4 µM (≈ 64 µg/mL), respectively.
